# According to US12371454B2, “Cyclic peptide compound having Kras inhibitory action” (priority 2019, dated 2025):
# Positions of bridges follow the written chain, without caps; N, C: chain ends. Non-standard residues stand in square brackets, D forms with d. Residues, ends and D or L forms follow the SMILES beside them. *: point of attachment. hPhe(3-Cl-4-CF3) = N[C@@H](CCc1ccc(C(F)(F)F)c(Cl)c1)C(=O)O; NMePhe(4-CF3) = CN[C@@H](Cc1ccc(C(F)(F)F)cc1)C(=O)O; hPhe(4-CF3) = N[C@@H](CCc1ccc(C(F)(F)F)cc1)C(=O)O; 3Oxa8azabicyclo(3.2.1)octane = C1CC2COCC1N2*; NMePhe(4-Cl) = CN[C@@H](Cc1ccc(Cl)cc1)C(=O)O; NMePhe(4-Me) = CN[C@@H](Cc1ccc(C)cc1)C(=O)O; NMePhe(2-Cl) = CN[C@@H](Cc1ccccc1Cl)C(=O)O; NMeGly(cPent) = CN[C@H](C(=O)O)C1CCCC1; Phe(3-I) = N[C@@H](Cc1cccc(I)c1)C(=O)O; Phe(2-F) = N[C@@H](Cc1ccccc1F)C(=O)O; NMeCha = CN[C@@H](CC1CCCCC1)C(=O)O; Ala(cPr) = N[C@@H](CC1CC1)C(=O)O; NMeI = CC[C@H](C)[C@H](NC)C(=O)O; Cha = N[C@@H](CC1CCCCC1)C(=O)O; NMeD = CN[C@@H](CC(=O)O)C(=O)O; NMeL = CN[C@@H](CC(C)C)C(=O)O; NMeV = CN[C@H](C(=O)O)C(C)C; d(β3hA) = C[C@@H](N)CC(=O)O; dPip = O=C(O)[C@H]1CCCCN1; NMeA = CN[C@@H](C)C(=O)O; NMeAib = CNC(C)(C)C(=O)O; Piperidide = C1CCN(*)CC1; Pyrrolidide = C1CCN(*)C1; dNMeA = CN[C@H](C)C(=O)O; Ac5c = NC1(C(=O)O)CCCC1; Aze = O=C(O)[C@@H]1CCN1; NcPrGly = O=C(O)CNC1CC1; Sar = CNCC(=O)O
# Biological target: T1, Kras and SOS1 (biotin-tagged human Kras loaded with GDP, His-tagged human SOS1) (Homo sapiens, UniProt P01116, G12D)
# T1 construct: made in house; host or cells: E. coli (stated for Kras only)
# Assay: Protein-protein interaction inhibition between Kras and SOS1 (KrasGl2D-SOS PPI) using AlphaScreen
# Assay type: binding
# Details: AlphaScreen; biotin-tagged human Kras loaded with GDP, His-tagged human SOS1; read-out: KRAS G12D-SOS PPI IC50
# In short: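 Donor beads (nickel) hold His-SOS1; acceptor beads (streptavidin) hold biotin-Kras bound to GDP. Signal measured at 520-620 nm following 680 nm excitation.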
# T1 sequence (P01116 1-188 isoform P01116-2 G12D): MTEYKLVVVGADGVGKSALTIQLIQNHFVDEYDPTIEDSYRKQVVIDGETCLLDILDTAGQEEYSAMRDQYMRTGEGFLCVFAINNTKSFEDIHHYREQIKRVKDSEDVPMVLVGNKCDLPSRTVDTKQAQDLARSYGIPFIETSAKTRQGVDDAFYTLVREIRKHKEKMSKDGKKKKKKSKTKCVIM
row,SMILES,IC50
1,CC[C@H](C)[C@@H]1NC(=O)[C@H](C)N(C)C(=O)C[C@@H](C(=O)N2CCCC2)NC(=O)[C@H](CC(C)C)N(C)C(=O)[C@H](CC2CCCCC2)N(C)C(=O)[C@H](CC(C)C)NC(=O)[C@H](CCc2ccc(C(F)(F)F)cc2)NC(=O)CN(C)C(=O)[C@H](Cc2ccc(Cl)cc2)N(C)C(=O)CN(C)C(=O)CN(C)C1=O [Compound 536] ([NMeA]I[Sar][Sar][NMePhe(4-Cl)][Sar][hPhe(4-CF3)]L[NMeCha][NMeL]D-Pyrrolidide; lactam N-11),230 nM
2,CC(C)C[C@H]1C(=O)N[C@@H](CC2CCCCC2)C(=O)N(C)CC(=O)N(C)CC(=O)N(C)[C@@H](CC2CCCCC2)C(=O)N(C)CC(=O)N[C@@H](CCc2ccc(C(F)(F)F)c(Cl)c2)C(=O)N2CCC[C@H]2C(=O)NC2(CCCC2)C(=O)N(C)[C@@H](C(C)C)C(=O)N[C@H](C)CC(=O)N1C [Compound 537] (cyclo([Ac5c][NMeV][d(β3hA)][NMeL][Cha][Sar][Sar][NMeCha][Sar][hPhe(3-Cl-4-CF3)]P)),82 nM
3,CC[C@H](C)[C@@H]1NC(=O)[C@H](C(C)C)N(C)C(=O)C[C@@H](C)NC(=O)[C@H](CC(C)C)N(C)C(=O)C2(CCCC2)NC(=O)[C@H](CC(C)C)N(C)C(=O)[C@H](CCc2ccc(C(F)(F)F)cc2)NC(=O)CN(C)C(=O)[C@H](Cc2ccc(Cl)cc2)N(C)C(=O)CN(C)C(=O)[C@@H]2CCN2C1=O [Compound 538] (cyclo([Ac5c][NMeL][d(β3hA)][NMeV]I[Aze][Sar][NMePhe(4-Cl)][Sar][hPhe(4-CF3)][NMeL])),110 nM
4,CC[C@H](C)[C@@H]1NC(=O)[C@H](C)N(C)C(=O)C[C@@H](C)NC(=O)[C@H](C2CCCC2)N(C)C(=O)C2(CCCC2)NC(=O)[C@@H]2CCCN2C(=O)[C@H](CCc2ccc(C(F)(F)F)c(Cl)c2)NC(=O)[C@@H](C)N(C)C(=O)[C@H](Cc2ccccc2Cl)N(C)C(=O)CN(C)C(=O)CN(C)C1=O [Compound 539] (cyclo([Ac5c][NMeGly(cPent)][d(β3hA)][NMeA]I[Sar][Sar][NMePhe(2-Cl)][dNMeA][hPhe(3-Cl-4-CF3)]P)),190 nM
5,CC[C@H](C)[C@@H]1NC(=O)[C@H](CC(C)C)N(C)C(=O)C[C@@H](C)NC(=O)[C@H](C(C)C)N(C)C(=O)C2(CCCC2)NC(=O)[C@@H]2CCCN2C(=O)[C@H](CCc2ccc(C(F)(F)F)c(Cl)c2)NC(=O)CN(C)C(=O)[C@H](CC2CCCCC2)N(C)C(=O)CN(C)C(=O)CN(C2CC2)C1=O [Compound 542] (cyclo([Ac5c][NMeV][d(β3hA)][NMeL]I[NcPrGly][Sar][NMeCha][Sar][hPhe(3-Cl-4-CF3)]P)),61 nM
6,CC[C@H](C)[C@@H]1NC(=O)[C@H](CC(C)C)N(C)C(=O)C[C@@H](C(=O)N2C3CCC2COC3)N(C)C(=O)[C@H]([C@@H](C)CC)N(C)C(=O)C2(CCCC2)NC(=O)[C@@H]2CCCN2C(=O)[C@H](CCc2ccc(C(F)(F)F)c(Cl)c2)NC(=O)CN(C)C(=O)[C@H](Cc2ccc(C(F)(F)F)cc2)N(C)C(=O)[C@@H]2CCN2C(=O)[C@H](C)N(C)C1=O [Compound 545] ([NMeL]I[NMeA][Aze][NMePhe(4-CF3)][Sar][hPhe(3-Cl-4-CF3)]P[Ac5c][NMeI][NMeD]-{3Oxa8azabicyclo(3.2.1)octane}; lactam N-11),1.1 nM
7,CC[C@H](C)[C@@H]1NC(=O)[C@H](C)N(C)C(=O)C[C@@H](C)NC(=O)[C@H](C2CCCC2)N(C)C(=O)C2(CCCC2)NC(=O)[C@@H]2CCCN2C(=O)[C@H](CCc2ccc(C(F)(F)F)c(Cl)c2)NC(=O)CN(C)C(=O)[C@H](Cc2ccc(Cl)cc2)N(C)C(=O)[C@@H]2CCCN2C(=O)CN(C)C1=O [Compound 549] (cyclo([Ac5c][NMeGly(cPent)][d(β3hA)][NMeA]I[Sar]P[NMePhe(4-Cl)][Sar][hPhe(3-Cl-4-CF3)]P)),4 nM
8,CC(C)C[C@H]1C(=O)N[C@@H](CC2CC2)C(=O)N(C)CC(=O)N(C)CC(=O)N(C)[C@@H](CC2CCCCC2)C(=O)N(C)CC(=O)N[C@@H](CCc2ccc(C(F)(F)F)c(Cl)c2)C(=O)N2CCC[C@H]2C(=O)NC2(CCCC2)C(=O)N(C)[C@@H](C(C)C)C(=O)N[C@H](C)CC(=O)N1C [Compound 550] (cyclo([Ac5c][NMeV][d(β3hA)][NMeL][Ala(cPr)][Sar][Sar][NMeCha][Sar][hPhe(3-Cl-4-CF3)]P)),110 nM
9,CC[C@H](C)[C@@H]1NC(=O)[C@H](C)N(C)C(=O)C[C@@H](C(=O)N2CCCCC2)N(C)C(=O)[C@H](C(C)C)N(C)C(=O)C2(CCCC2)NC(=O)[C@@H]2CCCN2C(=O)[C@H](CCc2ccc(C(F)(F)F)c(Cl)c2)NC(=O)[C@H]2CCCCN2C(=O)[C@H](CC2CCCCC2)N(C)C(=O)[C@@H]2CCN2C(=O)CN(C)C1=O [Compound 553] ([NMeA]I[Sar][Aze][NMeCha][dPip][hPhe(3-Cl-4-CF3)]P[Ac5c][NMeV][NMeD]-Piperidide; lactam N-11),27 nM
10,CC[C@H](C)[C@@H]1NC(=O)[C@H](CC(C)C)N(C)C(=O)C[C@@H](C(=O)N2CCCCC2)N(C)C(=O)[C@H](CC(C)C)NC(=O)C(C)(C)N(C)C(=O)[C@H](Cc2ccccc2F)NC(=O)[C@H](Cc2cccc(I)c2)NC(=O)CN(C)C(=O)[C@H](Cc2ccc(C)cc2)N(C)C(=O)CN(C)C(=O)CN(C)C1=O [Compound 556] ([NMeL]I[Sar][Sar][NMePhe(4-Me)][Sar][Phe(3-I)][Phe(2-F)][NMeAib]L[NMeD]-Piperidide; lactam N-11),30 nM
